Experimental data as given in patent US20220356174A1, “PYRIDIN-2-ONE COMPOUNDS USEFUL AS SMARCA2 ANTAGONISTS” (Epizyme, Inc., priority 2018, published 2022).
Read-outs that look alike come from different tables or passages of the source.

Columns and labels:
[1] = target: T1, FL-SMARCA2 (full-length human SMARCA2 isoform 1) (Homo sapiens, UniProt P51531); test: SMARCA2 ATPase activity assay (ADP-Glo, chicken mononucleosome substrate); assay type: biochemical; conditions: ATP 250 uM
T1 construct: FLAG tag (YKDDDDK) (C); made in house; host or cells: Sf21 insect cells (baculovirus, pFastBacI)

[2] = target: FL-SMARCA4 (Homo sapiens, UniProt P51532); test: SMARCA4 ATPase activity assay (ADP-Glo, chicken mononucleosome substrate)
[3] = Table 3d.1, ATPase assay, enzyme 5 nM, chicken mononucleosome 10 nM, 30 min preincubation, read-out: FL-SMARCA2 IC>50
[4] = Table 3.1, ATPase assay, enzyme 5 nM, chicken mononucleosome 10 nM, 30 min preincubation
[5] = FL-SMARCA4 IC50, Table 3.2, ATPase assay, enzyme 5 nM, ATP 250 uM, chicken mononucleosome 10 nM, 30 min preincubation
[6] = Table 3c.1, ATPase assay, enzyme 5 nM, chicken mononucleosome 10 nM, 30 min preincubation
[7] = FL-SMARCA4 IC>50, Table 3c.2, ATPase assay, enzyme 5 nM, ATP 250 uM, chicken mononucleosome 10 nM, 30 min preincubation
[8] = Table 3a.1, SMARCA2 5 nM, mononucleosome 10 nM
[9] = FL-SMARCA4 IC50, Table 3a.2, SMARCA4 5 nM, ATP 250 uM, mononucleosome 10 nM
[10] = Table 3b.1, SMARCA2 5 nM, mononucleosome 10 nM
[11] = FL-SMARCA4 IC50, Table 3b.2, SMARCA4 5 nM, ATP 250 uM, mononucleosome 10 nM

FL-SMARCA4, sequence (P51532 whole entry): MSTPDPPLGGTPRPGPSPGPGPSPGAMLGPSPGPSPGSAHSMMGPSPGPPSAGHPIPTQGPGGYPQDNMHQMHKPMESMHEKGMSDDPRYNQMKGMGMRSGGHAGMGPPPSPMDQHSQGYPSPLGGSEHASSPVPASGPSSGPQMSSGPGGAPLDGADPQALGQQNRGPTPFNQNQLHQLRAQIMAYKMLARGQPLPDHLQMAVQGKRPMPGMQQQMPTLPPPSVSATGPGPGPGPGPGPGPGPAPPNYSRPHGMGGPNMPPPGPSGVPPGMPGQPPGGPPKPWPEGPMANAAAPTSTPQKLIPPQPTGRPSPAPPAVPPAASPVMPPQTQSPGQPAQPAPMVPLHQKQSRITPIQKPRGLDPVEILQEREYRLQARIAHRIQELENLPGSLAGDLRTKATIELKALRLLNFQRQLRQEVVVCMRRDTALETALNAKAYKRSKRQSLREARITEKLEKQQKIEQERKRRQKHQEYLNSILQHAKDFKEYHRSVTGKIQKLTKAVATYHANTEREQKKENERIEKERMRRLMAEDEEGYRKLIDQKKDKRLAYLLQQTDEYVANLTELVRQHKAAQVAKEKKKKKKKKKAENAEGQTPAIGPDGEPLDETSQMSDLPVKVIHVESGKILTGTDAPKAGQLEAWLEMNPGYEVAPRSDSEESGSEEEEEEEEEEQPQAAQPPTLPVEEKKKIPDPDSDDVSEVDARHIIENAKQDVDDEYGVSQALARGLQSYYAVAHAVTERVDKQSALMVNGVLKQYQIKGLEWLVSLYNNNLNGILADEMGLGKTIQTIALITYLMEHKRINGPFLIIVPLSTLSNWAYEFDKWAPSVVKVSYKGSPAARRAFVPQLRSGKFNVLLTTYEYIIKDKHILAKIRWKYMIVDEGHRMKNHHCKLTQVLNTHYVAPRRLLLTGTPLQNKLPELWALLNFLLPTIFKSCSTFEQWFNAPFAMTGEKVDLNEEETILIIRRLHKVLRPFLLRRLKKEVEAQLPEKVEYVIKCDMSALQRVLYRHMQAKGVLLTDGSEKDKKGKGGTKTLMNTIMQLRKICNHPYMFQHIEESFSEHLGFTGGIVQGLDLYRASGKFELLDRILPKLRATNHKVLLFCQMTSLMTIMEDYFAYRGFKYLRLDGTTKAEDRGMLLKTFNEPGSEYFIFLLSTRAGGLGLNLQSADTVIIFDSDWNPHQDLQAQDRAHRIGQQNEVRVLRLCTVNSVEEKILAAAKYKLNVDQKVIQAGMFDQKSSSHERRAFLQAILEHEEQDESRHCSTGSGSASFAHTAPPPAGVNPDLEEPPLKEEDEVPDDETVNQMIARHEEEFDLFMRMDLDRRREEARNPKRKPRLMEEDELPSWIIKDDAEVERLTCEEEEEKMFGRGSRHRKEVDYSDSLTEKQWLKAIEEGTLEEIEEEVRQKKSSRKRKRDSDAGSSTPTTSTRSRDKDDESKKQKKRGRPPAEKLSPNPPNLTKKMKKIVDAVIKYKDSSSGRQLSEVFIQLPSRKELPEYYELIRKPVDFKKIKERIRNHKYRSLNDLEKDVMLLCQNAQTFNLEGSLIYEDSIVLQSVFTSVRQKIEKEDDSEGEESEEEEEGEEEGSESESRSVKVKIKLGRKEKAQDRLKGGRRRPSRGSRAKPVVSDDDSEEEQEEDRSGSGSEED
T1 sequence (P51531 with tags, fused parts or gaps): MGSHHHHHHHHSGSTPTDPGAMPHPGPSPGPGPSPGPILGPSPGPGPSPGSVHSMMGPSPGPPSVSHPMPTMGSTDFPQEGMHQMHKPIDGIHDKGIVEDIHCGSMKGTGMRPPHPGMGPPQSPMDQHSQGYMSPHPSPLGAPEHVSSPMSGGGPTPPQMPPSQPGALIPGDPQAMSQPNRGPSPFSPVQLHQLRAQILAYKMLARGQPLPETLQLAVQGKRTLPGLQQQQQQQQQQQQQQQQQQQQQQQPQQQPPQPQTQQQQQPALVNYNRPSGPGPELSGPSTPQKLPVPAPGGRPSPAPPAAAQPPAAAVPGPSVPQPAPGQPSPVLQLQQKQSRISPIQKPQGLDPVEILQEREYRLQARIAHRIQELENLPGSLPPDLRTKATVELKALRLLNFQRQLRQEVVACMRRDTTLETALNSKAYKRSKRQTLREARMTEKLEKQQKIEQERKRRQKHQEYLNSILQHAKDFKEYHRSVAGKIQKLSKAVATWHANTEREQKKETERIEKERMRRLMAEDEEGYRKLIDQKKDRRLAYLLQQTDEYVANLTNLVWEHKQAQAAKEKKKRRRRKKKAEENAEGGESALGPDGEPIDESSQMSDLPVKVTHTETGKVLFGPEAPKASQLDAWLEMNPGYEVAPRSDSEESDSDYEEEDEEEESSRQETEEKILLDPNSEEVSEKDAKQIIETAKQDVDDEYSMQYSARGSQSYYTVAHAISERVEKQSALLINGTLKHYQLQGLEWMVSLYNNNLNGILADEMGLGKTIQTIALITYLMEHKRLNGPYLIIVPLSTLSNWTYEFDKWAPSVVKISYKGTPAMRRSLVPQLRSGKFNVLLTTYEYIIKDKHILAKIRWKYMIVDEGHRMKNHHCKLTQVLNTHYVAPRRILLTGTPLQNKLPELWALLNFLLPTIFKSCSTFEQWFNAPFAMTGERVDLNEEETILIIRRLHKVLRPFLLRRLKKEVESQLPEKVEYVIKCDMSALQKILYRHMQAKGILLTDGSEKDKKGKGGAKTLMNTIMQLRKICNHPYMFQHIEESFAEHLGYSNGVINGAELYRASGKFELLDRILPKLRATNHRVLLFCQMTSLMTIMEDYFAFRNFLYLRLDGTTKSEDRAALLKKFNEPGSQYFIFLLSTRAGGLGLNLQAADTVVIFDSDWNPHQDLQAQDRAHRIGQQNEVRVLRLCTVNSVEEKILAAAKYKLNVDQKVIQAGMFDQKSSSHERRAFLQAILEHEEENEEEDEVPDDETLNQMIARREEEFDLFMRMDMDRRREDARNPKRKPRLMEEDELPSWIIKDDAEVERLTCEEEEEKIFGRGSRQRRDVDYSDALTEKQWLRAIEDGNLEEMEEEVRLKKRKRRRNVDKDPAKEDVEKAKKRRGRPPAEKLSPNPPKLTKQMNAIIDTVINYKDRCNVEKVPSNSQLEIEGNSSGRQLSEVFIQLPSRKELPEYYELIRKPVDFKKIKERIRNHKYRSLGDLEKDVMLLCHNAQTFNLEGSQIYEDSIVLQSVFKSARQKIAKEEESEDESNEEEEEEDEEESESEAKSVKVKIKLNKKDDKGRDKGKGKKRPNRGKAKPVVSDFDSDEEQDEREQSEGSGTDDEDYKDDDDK

Row | Structure (SMILES) | IC50 [1, 4] [µM] | IC50 [2, 5] [µM] | other results
1 | O=C(Nc1cc(F)c(=O)n(CC(F)F)c1)c1nc(Cl)c[nH]1 [Compound 51d] |  |  | IC50 [1, 3]: > 50 µM; IC50 ([2]; FL-SMARCA4 IC50): > 50 µM
2 | CCn1cc(NC(=O)c2cc(Cl)c(Cl)s2)cc(OCCN(C)C)c1=O [Compound 121] | > 50 | > 50 | 
3 | O=C(Nc1cc(F)c(=O)n(CC(F)F)c1)c1cc(CC(F)(F)F)c(Cl)s1 [Compound 24c] |  |  | IC50 [1, 6]: 11.3 µM; IC50 [2, 7]: 38.7 µM
4 | CCn1c(F)c(NC(=O)c2cc(Cl)c(Cl)s2)ccc1=O [Compound 29d] |  |  | IC50 [1, 3]: > 50 µM; IC50 ([2]; FL-SMARCA4 IC50): > 50 µM
5 | O=C(Nc1cc(-c2cn[nH]c2)c(=O)n(CC(F)F)c1)c1cc(Cl)c(C(F)(F)F)s1 [Compound 110c] |  |  | IC50 [1, 6]: > 50 µM; IC50 [2, 7]: > 50 µM
6 | CCn1cc(C(=O)Nc2cc(Cl)c(Cl)s2)ccc1=O [Compound 79] | > 50 | > 50 | 
7 | O=C(Nc1cc(F)c(=O)n(CCF)c1)c1ccc2c(c1)CNC2=O [Compound 68a] |  |  | IC50 [1, 8]: > 50 µM; IC50 [2, 9]: > 50 µM
8 | CCn1cc(NC(=O)c2c[nH]c(C)c2)ccc1=O [Compound 55] | > 50 | > 50 | 
9 | CCc1sc(C(=O)Nc2ccc(=O)n(CC)c2)cc1Cl [Compound 95] | > 50 | > 50 | 
10 | CCn1cc(NC(=O)c2cn(C)c3c(Cl)cccc23)ccc1=O [Compound 27a] |  |  | IC50 [1, 8]: > 50 µM; IC50 [2, 9]: > 50 µM
11 | CCn1cc(NC(=O)c2cc(Cl)c(C#N)n2C)cc(F)c1=O [Compound 174] | 0.388 | 1.47 | 
12 | CCn1cc(C(=O)Nc2ccc(Br)s2)ccc1=O [Compound 77] | > 50 | > 50 | 
13 | CCn1cc(NC(=O)c2cc(Cl)c(Cl)s2)cc(NC)c1=O [Compound 126] | 46.8 | > 50 | 
14 | N#Cc1cc(C(=O)Nc2cc(F)c(=O)n(CCF)c2)[nH]c1Cl [Compound 229] | 0.602 | 1.88 | 
15 | CCn1cc(NC(=O)c2csc(NC)n2)ccc1=O [Compound 209] | > 50 | > 50 | 
16 | O=C(Nc1cc(F)c(=O)n(CC(F)F)c1)C1CCC(C(F)(F)F)O1 (stereo not shown) [Compound 135c] |  |  | IC50 [1, 6]: 39.5 µM; IC50 [2, 7]: 35.8 µM
17 | CCn1cc(NC(=O)[C@@H]2C[C@H](OC)CN2C)ccc1=O [Compound 3a] |  |  | IC50 [1, 8]: > 50 µM; IC50 [2, 9]: > 50 µM
18 | Cn1ccc(-c2cc(NC(=O)c3sc(C(F)(F)F)cc3Cl)cn(CC(F)F)c2=O)n1 [Compound 19c] |  |  | IC50 [1, 6]: > 50 µM; IC50 [2, 7]: > 50 µM
19 | Cn1c(C(=O)Nc2cc(F)c(=O)n(CC(F)(F)F)c2)cnc1Cl [Compound 212] | 8.52 | > 50 | 
20 | CCn1cc(NC(=O)c2cc(Cl)c(Cl)n2C2CC2)ccc1=O [Compound 62] | > 50 | > 50 | 
21 | CCn1cc(NC(=O)c2ccn(C)n2)ccc1=O [Compound 93] | > 50 | > 50 | 
22 | O=C(Nc1cc(F)c(=O)n(CC(F)F)c1)c1cc(Cl)no1 [Compound 326] | 3.78 | 17.2 | 
23 | CCn1cc(NC(=O)c2cc(Cl)cc(Cl)c2)ccc1=O [Compound 5b] |  |  | IC50 [1, 10]: > 50 µM; IC50 [2, 11]: > 50 µM

Row | Structure (SMILES) | IC50 [1, 4] [µM] | IC50 [2, 5] [µM] | other results
24 | CN1CC(C(=O)Nc2cc(F)c(=O)n(CCF)c2)CC1=O (stereo not shown) [Compound 51a] |  |  | IC50 [1, 8]: > 50 µM; IC50 [2, 9]: > 50 µM
25 | CCc1c(NC(=O)c2cc(Cl)c(Cl)s2)ccc(=O)n1CC [Compound 30d] |  |  | IC50 [1, 3]: > 50 µM; IC50 ([2]; FL-SMARCA4 IC50): > 50 µM
26 | CCn1cc(NC(=O)C2CCCC2)ccc1=O [Compound 11b] |  |  | IC50 [1, 10]: > 50 µM; IC50 [2, 11]: > 50 µM
27 | CCn1cc(NC(=O)c2csc(C#N)n2)ccc1=O [Compound 199] | > 50 | > 50 | 
28 | CCCn1c(C(=O)Nc2ccc(=O)n(CC)c2)cc(Cl)c1Cl [Compound 59] | > 50 | > 50 | 
29 | CN1CC(C(=O)Nc2cc(F)c(=O)n(CCF)c2)CCC1=O (stereo not shown) [Compound 49a] |  |  | IC50 [1, 8]: > 50 µM; IC50 [2, 9]: > 50 µM
30 | CCn1cc(NC(=O)[C@H]2CC[C@@H](Cl)C2)ccc1=O [Compound 16b] |  |  | IC50 [1, 10]: > 50 µM; IC50 [2, 11]: > 50 µM
31 | CCn1cc(NC(=O)c2ccc(CN(C)C)s2)ccc1=O [Compound 88] | > 50 | > 50 | 
32 | O=C(Nc1ccc(=O)n(Cc2ccccc2)c1)c1ccc(Br)s1 [Compound 54] | > 50 | > 50 | 
33 | O=C(Nc1cc(F)c(=O)n(CC(F)F)c1)c1cc(C#Cc2ccncc2)n[nH]1 [Compound 112c] |  |  | IC50 [1, 6]: > 50 µM; IC50 [2, 7]: > 50 µM
34 | CCn1cc(NC(=O)c2csc(-c3ccc(C)n3C)n2)ccc1=O [Compound 6] | > 50 | > 50 | 
35 | CCn1cc(NC(=O)c2cc(C#N)c(C#N)s2)ccc1=O [Compound 181] | 0.114 | 0.313 | 
36 | CN1CCC(C(=O)Nc2cc(F)c(=O)n(CCF)c2)CC1=O (stereo not shown) [Compound 47a] |  |  | IC50 [1, 8]: > 50 µM; IC50 [2, 9]: > 50 µM
37 | CCn1cc(NC(=O)c2ccc(I)n2C)ccc1=O [Compound 48] | 14.1 | > 50 | 
38 | Cn1nc(C#N)cc1C(=O)Nc1cc(F)c(=O)n(CCF)c1 [Compound 243] | 1.64 | 11.7 | 
39 | COc1c(C(=O)Nc2cc(F)c(=O)n(CC(F)F)c2)sc(Cl)c1Cl [Compound 46d] |  |  | IC50 [1, 3]: > 50 µM; IC50 ([2]; FL-SMARCA4 IC50): > 50 µM
40 | O=C(Nc1cc(F)c(=O)n(CC(F)F)c1)c1cc2cc(-c3ccncc3)ccc2s1 [Compound 84c] |  |  | IC50 [1, 6]: 1.85 µM; IC50 [2, 7]: 28.9 µM
41 | CCn1cc(NC(=O)c2cc(Cl)n[nH]2)ccc1=O [Compound 94] | 3.15 | 11.5 | 
42 | CCn1cc(NC(=O)c2cc(C#CCN)c(Cl)s2)ccc1=O [Compound 292] | 6.83 | 8.48 | 
43 | Cn1ccnc1-c1cc(NC(=O)c2cc(Cl)c(C(F)(F)F)s2)cn(CC(F)F)c1=O [Compound 88c] |  |  | IC50 [1, 6]: > 50 µM; IC50 [2, 7]: > 50 µM
44 | CCn1cc(NC(=O)c2ccc(Cl)c(Cl)c2)ccc1=O [Compound 4b] |  |  | IC50 [1, 10]: 42 µM; IC50 [2, 11]: > 50 µM
45 | CCn1cc(NC(=O)c2cncc(Cl)c2)ccc1=O [Compound 17a] |  |  | IC50 [1, 8]: > 50 µM; IC50 [2, 9]: > 50 µM
46 | COc1ncc(F)cc1C(=O)Nc1cc(F)c(=O)n(CC(F)F)c1 [Compound 41d] |  |  | IC50 [1, 3]: > 50 µM; IC50 ([2]; FL-SMARCA4 IC50): > 50 µM

Row | Structure (SMILES) | IC50 [1, 4] [µM] | IC50 [2, 5] [µM] | other results
47 | CCn1cc(NC(=O)c2nc3cc(Cl)c(Cl)cc3[nH]2)ccc1=O [Compound 42a] |  |  | IC50 [1, 8]: 13.2 µM; IC50 [2, 9]: > 50 µM
48 | N#Cc1[nH]c(C(=O)Nc2ccc(=O)n(CC(F)F)c2)cc1Cl [Compound 294] | 0.117 | 0.387 | 
49 | CNC(=O)c1cccc(N2CC(c3cc(C(=O)Nc4cc(F)c(=O)n(CC(F)F)c4)sc3Cl)C2)c1 [Compound 176c] |  |  | IC50 [1, 6]: 9.19 µM; IC50 [2, 7]: 9.19 µM
50 | N#Cc1cc(C(=O)Nc2ccc(=O)n(CC(F)(F)F)c2)sc1C#N [Compound 198] | 0.107 | 0.283 | 
51 | O=C(Nc1cc(F)c(=O)n(CC(F)F)c1)c1cc(C#Cc2ccncc2)cs1 [Compound 23c] |  |  | IC50 [1, 6]: 0.173 µM; IC50 [2, 7]: 0.219 µM
52 | COCCn1cc(NC(=O)c2cnn(-c3ccccc3C)c2C)ccc1=O [Compound 9] | > 50 | > 50 | 
53 | O=C(Nc1cc(F)c(=O)n(CC(F)F)c1)c1sc(Cl)c(Cl)c1O [Compound 49d] |  |  | IC50 [1, 3]: > 50 µM; IC50 ([2]; FL-SMARCA4 IC50): > 50 µM
54 | CNc1ncc(C(=O)Nc2cc(F)c(=O)n(CCF)c2)s1 [Compound 228] | > 50 | > 50 | 
55 | COc1ncc(C(=O)Nc2cc(F)c(=O)n(CC(F)F)c2)cc1F [Compound 42d] |  |  | IC50 [1, 3]: 27.6 µM; IC50 ([2]; FL-SMARCA4 IC50): > 50 µM
56 | Cn1c(C(=O)Nc2cc(F)c(=O)n(CC(F)(F)F)c2)cc(Cl)c1C#N [Compound 160] | 0.224 | 0.864 | 
57 | Cn1c(C(=O)Nc2ccc(=O)n(CCF)c2)cc(Cl)c1Cl [Compound 58] | 1.3 | 13.6 | 
58 | O=C(Nc1cc(F)c(=O)n(CC(F)F)c1)c1cc(Cl)on1 [Compound 44d] |  |  | IC50 [1, 3]: 29.5 µM; IC50 ([2]; FL-SMARCA4 IC50): > 50 µM
59 | O=C(Nc1cc(NCCN2CCCC2)c(=O)n(CCF)c1)c1cc(Cl)c(Cl)s1 [Compound 261] | 7.37 | 24.4 | 
60 | O=C(Nc1cc(F)c(=O)n(CCF)c1)c1cnc(NC2CCCC2)s1 [Compound 219] | > 50 | > 50 | 
61 | Cn1c(C(=O)Nc2cc(Cl)c(=O)n(CCF)c2)cnc1Cl [Compound 194] | 3.12 | 21.9 | 
62 | Cc1cc(=O)n(C)cc1NC(=O)C1CCCN(Cc2ccccc2)C1 (stereo not shown) [Compound 4d] |  |  | IC50 [1, 3]: 32 µM; IC50 ([2]; FL-SMARCA4 IC50): > 50 µM
63 | Cn1c(C(=O)Nc2cc(F)c(=O)n(CCF)c2)cc(Cl)c1C#N [Compound 152] | 0.166 | 0.616 | 
64 | O=C(Nc1cc(F)c(=O)n(CC(F)F)c1)c1nsc(Cl)n1 [Compound 76c] |  |  | IC50 [1, 6]: 24.1 µM; IC50 [2, 7]: > 50 µM
65 | CCn1cc(NC(=O)c2cnc(Cl)s2)cc(Cl)c1=O [Compound 103] | 0.356 | 0.531 | 
66 | Cc1nc(-c2cc(C(=O)Nc3ccc(=O)n(C)c3)n(C)c2)cs1 [Compound 7] | > 50 | > 50 | 
67 | C[S+]([O-])c1cc(NC(=O)c2cc(F)c(Cl)s2)cn(CC(F)F)c1=O (stereo not shown) [Compound 8c] |  |  | IC50 [1, 6]: > 50 µM; IC50 [2, 7]: > 50 µM
68 | NC(=O)c1ncc(C(=O)Nc2cc(F)c(=O)n(CCF)c2)s1 [Compound 226] | > 50 | > 50 | 
